Read-outs that look alike come from different tables or passages of the source.
Target: T1, BCL6 (Homo sapiens, UniProt P41182)
T1 construct: endogenous in cells; host or cells: T47D breast cancer epithelial cells
Assay: Immunofluorescence protocol for high content imaging of BCL6 (degradation) in T47D cells, 3 days compound treatment
Type: cell-based
Conditions: for DC50: read-out: Mean DC50 (nM)* category; for Dmax: read-out: Mean Dmax (%)** category
Method in brief: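 T47D cells in RPMI1640-10% FBS were treated with an 11-point 3-fold dilution series (final top 0.1 or 1 μM) for 3 days at 37° C. After PFA fixation and Triton permeabilization, cells were immunostained with rabbit anti-BCL6 (1:300, overnight 4° C), Alexa-488 secondary, CellMask-647 and Hoechst, then imaged at 10×, 4 fields/well.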

[1] = T47D cells, 3 days compound treatment

DC50 [1]	Dmax [1]	Structure (SMILES)	Dmax (T47D)	DC50	Mean Dmax (%)** category
10 to 50 nM	50 to 70%	CNC(=O)COc1cc2cc(Nc3nc(N4CCCC4)ncc3Cl)ccc2n(CCOc2ccc3c(c2)C(=O)N(C2CCC(=O)NC2=O)C3=O)c1=O (stereo not shown) [Compound 32, 2-[(6-{[5-chloro-2-(pyrrolidin-1-yl)pyrimidin-4-yl]amino}-1-(2-{[2-(2,6-dioxopiperidin-3-yl)-1,3-dioxo-2,3-dihydro-1H-isoindol-5-yl]oxy}ethyl)-2-oxo-1,2-dihydroquinolin-3-yl)oxy]-N-methylacetamide]	–	–	–
–	–	CNC(=O)COc1cc2c(F)c(Nc3cc(N4CCC(CN5CCC6(CN(c7ccc8c(c7)CN(C7CCC(=O)NC7=O)C8=O)C6)C(F)(F)C5)CC4)ncc3Cl)ccc2n(C(C)C)c1=O (stereo not shown) [Compound 251, 2-{[6-({5-chloro-2-[4-({2-[2-(2,6-dioxopiperidin-3-yl)-1-oxo-2,3-dihydro-1H-isoindol-5-yl]-5,5-difluoro-2,7-diazaspiro[3.5]nonan-7-yl}methyl)piperidin-1-yl]pyridin-4-yl}amino)-5-fluoro-2-oxo-1-(propan-2-yl)-1,2-dihydroquinolin-3-yl]oxy}-N-methylacetamide]	≥ 70%	< 10 nM	–
–	–	CNC(=O)COc1cc2cc(Nc3nc(N4CCC(O[C@H]5C[C@H](N6CCC(c7ccc8c(c7C(F)(F)F)CN(C7CCC(=O)NC7=O)C8=O)CC6)C5)CC4)ncc3Cl)ccc2n(C(C)C)c1=O (stereo partly shown) [Compound 226, 2-({6-[(5-chloro-2-{4-[(1r,3r)-3-{4-[2-(2,6-dioxopiperidin-3-yl)-1-oxo-4-(trifluoromethyl)-2,3-dihydro-1H-isoindol-5-yl]piperidin-1-yl}cyclobutoxy]piperidin-1-yl}pyrimidin-4-yl)amino]-2-oxo-1-(propan-2-yl)-1,2-dihydroquinolin-3-yl}oxy)-N-methylacetamide]	≥ 70%	< 10 nM	–
< 10 nM	≥ 70%	CNC(=O)COc1cc2cc(Nc3nc(N4CCC(CN5CC[C@]6(CCN(c7ccc8c(c7)CN([C@@H]7CCC(=O)NC7=O)C8=O)C6)C5)CC4)ncc3Cl)ccc2n(C(C)C)c1=O [Compound 2, 2-[(6-{[5-chloro-2-(4-{[(5S)-7-{2-[(3R)-2,6-dioxopiperidin-3-yl]-1-oxo-2,3-dihydro-1H-isoindol-5-yl}-2,7-diazaspiro[4.4]nonan-2-yl]methyl}piperidin-1-yl)pyrimidin-4-yl]amino}-2-oxo-1-(propan-2-yl)-1,2-dihydroquinolin-3-yl)oxy]-N-methylacetamide]	–	–	–
–	–	CNC(=O)COc1cc2cc(Nc3nc(N4CCC(O[C@H]5C[C@H](N6CCN(c7ccc8c(n7)CN(C7CCC(=O)NC7=O)C8=O)[C@H](C)C6)C5)CC4)ncc3Cl)ccc2n(C(C)C)c1=O (stereo partly drawn) [Compound 415, 2-({6-[(5-chloro-2-{4-[(1r,3r)-3-[(3R)-4-[6-(2,6-dioxopiperidin-3-yl)-5-oxo-5H,6H,7H-pyrrolo [3,4-b]pyridin-2-yl]-3-methylpiperazin-1-yl]cyclobutoxy]piperidin-1-yl}pyrimidin-4-yl)amino]-2-oxo-1-(propan-2-yl)-1,2-dihydroquinolin-3-yl}oxy)-N-methylacetamide]	–	< 10 nM	A (A >= 70)
< 10 nM	50 to 70%	CNC(=O)COc1cc2cc(Nc3nc(N4CCC(CN5CC6(CCN(c7ccc8c(c7)CN(C7CCC(=O)NC7=O)C8=O)CC6(F)F)C5)CC4)ncc3Cl)ccc2n(C(C)C)c1=O (stereo not shown) [Compound 136, 2-{[6-({5-chloro-2-[4-({7-[2-(2,6-dioxopiperidin-3-yl)-1-oxo-2,3-dihydro-1H-isoindol-5-yl]-5,5-difluoro-2,7-diazaspiro[3.5]nonan-2-yl}methyl)piperidin-1-yl]pyrimidin-4-yl}amino)-2-oxo-1-(propan-2-yl)-1,2-dihydroquinolin-3-yl]oxy}-N-methylacetamide]	–	–	–
< 10 nM	50 to 70%	CNC(=O)COc1cc2cc(Nc3nc(N4CCC(CN5CCC6(CN(c7cccc8c7C(=O)N(C7CCC(=O)NC7=O)C8=O)C6)C(F)(F)C5)CC4)ncc3Cl)ccc2n(C(C)C)c1=O (stereo not shown) [Compound 91, 2-{[6-({5-chloro-2-[4-({2-[2-(2,6-dioxopiperidin-3-yl)-1,3-dioxo-2,3-dihydro-1H-isoindol-4-yl]-5,5-difluoro-2,7-diazaspiro[3.5]nonan-7-yl}methyl)piperidin-1-yl]pyrimidin-4-yl}amino)-2-oxo-1-(propan-2-yl)-1,2-dihydroquinolin-3-yl]oxy}-N-methylacetamide]	–	–	–
–	–	CNC(=O)COc1cc2cc(Nc3nc(N4CCC(O[C@H]5C[C@H](N6CCN(c7cc(F)c8c(c7F)CN(C7CCC(=O)NC7=O)C8=O)CC6)C5)CC4)ncc3Cl)ccc2n(C(C)C)c1=O (stereo partly shown) [Compound 273, 2-({6-[(5-chloro-2-{4-[(1r,3r)-3-{4-[2-(2,6-dioxopiperidin-3-yl)-4,7-difluoro-1-oxo-2,3-dihydro-1H-isoindol-5-yl]piperazin-1-yl}cyclobutoxy]piperidin-1-yl}pyrimidin-4-yl)amino]-2-oxo-1-(propan-2-yl)-1,2-dihydroquinolin-3-yl}oxy)-N-methylacetamide]	50 to 70%	< 10 nM	–

Structure (SMILES)	DC50 [1]	Dmax [1]	Dmax (T47D)	DC50	Mean Dmax (%)** category
CNC(=O)COc1cc2cc(Nc3nc(N4CCC(O[C@H]5C[C@H](N6CCN(c7ccc8c(c7C)C(=O)N(C7CCC(=O)NC7=O)C8=O)[C@H](C)C6)C5)CC4)ncc3Cl)ccc2n(C(C)C)c1=O (stereo partly drawn) [Compound 193, 2-({6-[(5-chloro-2-{4-[(1r,3r)-3-[(3R)-4-[2-(2,6-dioxopiperidin-3-yl)-4-methyl-1,3-dioxoisoindol-5-yl]-3-methylpiperazin-1-yl]cyclobutoxy]piperidin-1-yl}pyrimidin-4-yl)amino]-1-isopropyl-2-oxoquinolin-3-yl}oxy)-N-methylacetamide]	< 10 nM	≥ 70%	–	–	–
CNC(=O)COc1cc2cc(Nc3nc(N4CCC(O[C@H]5C[C@H](N6CC[C@@H](c7ccc8c(c7F)CN([C@H]7CCC(=O)NC7=O)C8=O)C(C)(C)C6)C5)CC4)ncc3Cl)ccc2n(C(C)C)c1=O [Compound 209, 2-({6-[(5-chloro-2-{4-[(1r,3r)-3-[(4R)-4-{2-[(3S)-2,6-dioxopiperidin-3-yl]-4-fluoro-1-oxo-2,3-dihydro-1H-isoindol-5-yl}-3,3-dimethylpiperidin-1-yl]cyclobutoxy]piperidin-1-yl}pyrimidin-4-yl)amino]-2-oxo-1-(propan-2-yl)-1,2-dihydroquinolin-3-yl}oxy)-N-methylacetamide]	< 10 nM	≥ 70%	–	–	–
CNC(=O)COc1cc2cc(Nc3nc(N4CCC(O[C@H]5C[C@H](N6CCC(c7ccc8c(c7)C(=O)N(C7CCC(=O)NC7=O)C8=O)C(F)(F)C6)C5)CC4)ncc3Cl)ccc2n(C(C)C)c1=O (stereo partly shown) [Compound 137, 2-({6-[(5-chloro-2-{4-[(1r,3r)-3-{4-[2-(2,6-dioxopiperidin-3-yl)-1,3-dioxo-2,3-dihydro-1H-isoindol-5-yl]-3,3-difluoropiperidin-1-yl}cyclobutoxy]piperidin-1-yl}pyrimidin-4-yl)amino]-2-oxo-1-(propan-2-yl)-1,2-dihydroquinolin-3-yl}oxy)-N-methylacetamide]	≥ 100 nM	≥ 70%	–	–	–
